{"source": "patent US11723886B2", "about": "“Targeting ocular diseases with novel APE1/Ref-1 inhibitors” (Indiana University Research and Technology Corporation, priority 2018, dated 2023)", "key": {"[1]": {"system": "human retinal microvascular endothelial cells (HRECs)", "experiment": "In vitro cell proliferation assay (alamarBlue), HRECs", "assay_type": "cell-based", "conditions": "HREC, read-out: GI50 (median growth inhibition), HRECs", "description": "Cells. Primary human retinal microvascular endothelial cells (HRECs) were obtained from Cell Systems, Inc. (Kirkland, Wash.), while the Rf/6a macacque choroidal endothelial cell line was obtained from ATCC (Manassas, Va.). Cells were maintained as described (Basavarajappa et al., EMBO Mol Med 9:786-801 (2017)), re-ordered at least annually, and regularly assessed for mycoplasma contamination.\nIn vitro cell proliferation assay. Endothelial cell proliferation was measured as described previously (Basavarajappa et al., PLoS One 9:e95694 (2014); Basavarajappa et al., EMBO Mol Med 9:786-801 (2017)). Briefly, 2.5×10^3 cells were seeded in 100 μL of growth medium and plated in each well of 96-well clear-bottom black plates and incubated for 24 hours. APX2009, APX2014, or DMSO vehicle (DMSO final concentration=1%) was added, and the plates were incubated for 24-48 hours in 100 μL complete medium at 37° C. and 5% CO2. AlamarBlue reagent (11.1 μL) was added to each well of the plate and 4 hours later fluorescence readings were taken at excitation and emission wavelengths of 560 nm and 590 nm, respectively, using a Synergy H1 plate reader (BioTek, Winooski, Vt.). GI50 was calculated using GraphPad Prism v. 7.0."}, "[2]": {"system": "HRECs", "experiment": "EdU incorporation and Ki-67 staining in HRECs", "assay_type": "cell-based, human", "description": "EdU incorporation, Ki-67 Staining and TUNEL. These assays were carried out as described previously (Basavarajappa et al., PLoS One 9:e95694 (2014); Basavarajappa et al., EMBO Mol Med 9:786-801 (2017)) with the exception of using chamber slides, not coverslips. Briefly, cells (30,000 per well) were seeded on 8-well chamber slides coated with attachment factors and allowed to attach overnight. Cells were treated with the indicated compound concentrations for 17 hours (overnight). To assay proliferation, cells were incubated with EdU in complete media for 8 hours at 37° C. Cells were then fixed in 4% paraformaldehyde for 20 minutes and permeabilized using 0.25% Triton X-100 prepared in PBS. Cells were incubated with a rabbit-specific monoclonal antibody against Ki-67 (D3B5) (#9129; Cell Signaling, Danvers, Mass.) (1:400) overnight at 4° C. Secondary antibody was Alexa Fluor goat anti-rabbit 488 (A11034; Invitrogen, Carlsbad, Calif.) with DAPI counter-stain for nuclear staining. Proliferating cells that incorporated EdU were detected using the Click-iT EdU Imaging kit (Invitrogen, Carlsbad, Calif.). […] The cells were imaged using a Zeiss AxioImager D2 microscope or an LSM 700 confocal microscope and the percentage of positive cells was counted on three low-power (for TUNEL) or high-power (for Ki-67 and EdU) fields per well using ImageJ software."}, "[3]": {"system": "HRECs", "experiment": "Propidium iodide cell cycle analysis in HRECs", "assay_type": "cell-based, human", "conditions": "high doses, 24 hours", "description": "Cell cycle analysis. HRECs (2×10^6) were grown in EGM-2 medium. Cells were serum starved in EBM-2 medium overnight, then treated with the indicated concentrations of APX2009 or APX2014 along with DMSO control for 24 hours in complete medium. Cells were washed twice in ice-cold PBS followed by fixation in 66% ethanol solution overnight at 4° C. Fixed cells were again washed twice in ice-cold PBS and the pellets were resuspended in propidium iodide staining solution for 30 minutes at 37° C. (20 μg/mL propidium iodide prepared in 1×PBS containing 0.1% Triton X-100 and 100 μg/mL RNase A). After incubation cells were analyzed using flow cytometry (FACSCalibur, BD Biosciences, San Jose, Calif.). Pulse shape analysis was used to exclude doublets and debris. The single cell population was then assessed by the FL2 area histogram plot using ModFit software (v. 5.0) and cell cycle profiles were generated."}, "[4]": {"system": "HRECs", "experiment": "Matrigel tube formation assay, HRECs", "assay_type": "cell-based, human", "conditions": "mid nanomolar concentrations, vs control", "description": "(§1) In vitro Matrigel tube formation assay. The ability of HRECs and Rf/6a cells to form tubes in vitro was monitored as described before (Basavarajappa et al., PLoS One 9:e95694 (2014); Basavarajappa et al., EMBO Mol Med 9:786-801 (2017)). Briefly, cells were treated with the indicated concentrations of APX2009 or APX2014 compounds or DMSO for 48 hours and then 1.5×10^4 cells in 100 μL of growth medium containing DMSO or APX compounds were added to each well of a 96-well plate that was pre-coated with 50 μL of Matrigel basement membrane (DMSO final concentration=1%). Digital photographs of each well at different time points were taken to measure the in vitro tube formation using the Angiogenesis Analyzer plugin in ImageJ software (v.1.48; http://image.bio.methods.free.fr/ImageJ/?Angiogenesis-Analyzer-for-ImageJ.html)."}, "[5]": {"system": "Rf/6a cells", "experiment": "Matrigel tube formation assay, Rf/6a", "assay_type": "cell-based, macaque", "conditions": "mid nanomolar concentrations, vs control", "description": "as §1"}, "[6]": {"system": "NF-κB p65", "experiment": "NF-κB p65 nuclear translocation assay in TNF-α stimulated HRECs", "assay_type": "cell-based, human", "conditions": "10 ng/ml TNF-α", "description": "NF-κB p65 nuclear translocation assay. The NF-κB nuclear translocation assay was performed by seeding 30,000 HRECs/well on an 8-well chamber slide coated with attachment factors. The cells were grown in EGM-2 medium overnight before treating with indicated concentrations of APX2009 and APX2014, or 10 μM BAY 11-7082 (Sigma, St. Louis, Mo.) as a positive control NF-κB inhibitor. After 17 hours incubation, the media was replaced with EBM-2 (minimal medium) with indicated concentrations of compound or DMSO for 1 hour. The cells were then stimulated with 10 ng/ml TNF-α in EBM-2 for 20 minutes at 37° C. to activate NF-κB. Cells were then fixed in 4% paraformaldehyde and permeabilized using 0.5% Triton X-100 solution prepared in PBS. The cells were incubated with a monoclonal antibody against NF-κB p65 (sc-8008; Santa Cruz, Santa Cruz, Calif.) (1:50) overnight at 4° C., followed by Alexafluor 555 goat anti-mouse secondary antibody (1:2000) for one hour. The cells were counter-stained with Hoechst 33342 for nuclear staining and then mounted using Everbrite hardset mounting medium. The cells were imaged using a Zeiss AxioImager D2 microscope."}}}
{"compound": "CCC/C(=C\\C1=C(OC)C(=O)c2ccccc2C1=O)C(=O)NOC", "note": "[APX2014, (2E)-2-[(3-methoxy-1,4-dioxo-1,4-dihydronapthalen-2-yl)methylidene]-N-methoxypentanamide]", "values": [{"measurement": "GI50", "setting": "[1]", "value": 110, "unit": "nM"}, {"measurement": "cells going through S phase (Ki-67 staining, EdU incorporation)", "setting": "[2]", "value": "reduced the number of cells going through S phase"}, {"measurement": "cell cycle phase distribution", "setting": "[3]", "value": "modest increase in cells in G0/G1 phase"}, {"measurement": "ability to form tubes, HRECs", "setting": "[4]", "value": "significantly reduced"}, {"measurement": "ability to form tubes, Rf/6a", "setting": "[5]", "value": "significantly reduced"}, {"measurement": "translocation of p65 into the nucleus in response to TNF-α", "setting": "[6]", "value": "dose-dependently attenuated"}]}
{"compound": "CCC/C(=C\\C1=C(OC)C(=O)c2ccccc2C1=O)C(=O)N(CC)CC", "note": "[APX2009, (2E)-2-[(3-methoxy-1,4-dioxo-1,4-dihydronaphthalen-2-yl)methylidene]-N,N-diethylpentanamide]", "values": [{"measurement": "GI50", "setting": "[1]", "value": 1100, "unit": "nM"}, {"measurement": "cells going through S phase (Ki-67 staining, EdU incorporation)", "setting": "[2]", "value": "reduced the number of cells going through S phase"}, {"measurement": "cell cycle phase distribution", "setting": "[3]", "value": "modest increase in cells in G0/G1 phase"}, {"measurement": "ability to form tubes, HRECs", "setting": "[4]", "value": "significantly reduced"}, {"measurement": "ability to form tubes, Rf/6a", "setting": "[5]", "value": "significantly reduced"}, {"measurement": "translocation of p65 into the nucleus in response to TNF-α", "setting": "[6]", "value": "dose-dependently attenuated"}]}
